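A five-concentration, 48-hour dose response in 96-well plates underlies each endpoint, interpolated linearly between surrounding concentrations. The concentration for 50% growth inhibition is given as GI50.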 The source made the active and inactive calls. No stated cut-off is given here; in the data, active = GI50 up to about 1.1 µM and inactive = higher.
Columns and labels:
Assay in all cases: DTP human tumour cell line panel, 48 h
A498 = tested on: A498
A549 = tested on: A549
CAKI-1 = tested on: CAKI-1
CCRF-CEM = tested on: CCRF-CEM
COLO 205 = tested on: COLO 205
EKVX = tested on: EKVX
HCT-15 = tested on: HCT-15
IGROV-1 = tested on: IGROV-1
KM12 = tested on: KM12
MDA-N = tested on: MDA-N
OVCAR-3 = tested on: OVCAR-3
OVCAR-4 = tested on: OVCAR-4
OVCAR-5 = tested on: OVCAR-5
PC-3 = tested on: PC-3
RXF 393 = tested on: RXF 393
SF-268 = tested on: SF-268
SF-295 = tested on: SF-295
SN12C = tested on: SN12C
SNB-75 = tested on: SNB-75
UO-31 = tested on: UO-31

| Compound | GI50 (A498) | GI50 (A549) | GI50 (CAKI-1) | GI50 (CCRF-CEM) | GI50 (COLO 205) | GI50 (EKVX) | GI50 (HCT-15) [µM] | GI50 (IGROV-1) | GI50 (KM12) | GI50 (MDA-N) | GI50 (OVCAR-3) | GI50 (OVCAR-4) | GI50 (OVCAR-5) | GI50 (PC-3) | GI50 (RXF 393) | GI50 (SF-268) | GI50 (SF-295) | GI50 (SN12C) | GI50 (SNB-75) | GI50 (UO-31) |
| --- | --- | --- | --- | --- | --- | --- | --- | --- | --- | --- | --- | --- | --- | --- | --- | --- | --- | --- | --- | --- |
| O=C1c2ccccc2C(=O)c2c(NCC3CO3)ccc(NCC3CO3)c21 (stereo not given) | 33.3 µM (inactive) | 2.4 µM (inactive) | 0.687 µM (active) | < 0.01 µM (active) | 4.99 µM (inactive) | > 32.2 µM (inactive) | 3.47 | 3.78 µM (inactive) | 3.85 µM (inactive) | 1.3 µM (inactive) | 4.54 µM (inactive) | 10.9 µM (inactive) | 4.54 µM (inactive) | 1.91 µM (inactive) | 2.21 µM (inactive) | 0.254 µM (active) | 3.59 µM (inactive) | 0.456 µM (active) | 26.7 µM (inactive) | 1.87 µM (inactive) |
| CN(C)CCS/C(=N\c1ccccc1)N1C=COC=C1 | > 100 µM (inactive) | > 100 µM (inactive) | > 33.3 µM (inactive) | > 74.6 µM (inactive) | 27.2 µM (inactive) | 86.1 µM (inactive) | 20.5 | 18 µM (inactive) | 57.4 µM (inactive) | 24 µM (inactive) | 46 µM (inactive) | > 44.6 µM (inactive) | > 66.5 µM (inactive) | 34.4 µM (inactive) | 26.7 µM (inactive) | 15.8 µM (inactive) | 99.8 µM (inactive) | 27.5 µM (inactive) | > 78.7 µM (inactive) | 57.3 µM (inactive) |
| CCCCC(=O)Nc1ccc2cc(C(=O)OC)c(Cl)nc2n1 | 37.1 µM (inactive) | > 100 µM (inactive) | > 60.7 µM (inactive) | > 100 µM (inactive) | 12.8 µM (inactive) | 59.7 µM (inactive) | > 100 | > 100 µM (inactive) | 3.15 µM (inactive) | > 100 µM (inactive) | 7.59 µM (inactive) | > 100 µM (inactive) | > 100 µM (inactive) | 19.7 µM (inactive) | > 100 µM (inactive) | > 100 µM (inactive) | 40.1 µM (inactive) | 50 µM (inactive) | > 100 µM (inactive) | 19.9 µM (inactive) |
| NC(Cc1ccc(N(CCCl)CCCl)cc1)C(=O)NC(CCC(=O)O)C(=O)O (stereo not given) | > 100 µM (inactive) | > 100 µM (inactive) | > 100 µM (inactive) | > 100 µM (inactive) | > 100 µM (inactive) | > 100 µM (inactive) | > 100 | > 100 µM (inactive) | > 100 µM (inactive) | > 100 µM (inactive) | > 100 µM (inactive) | > 100 µM (inactive) | > 100 µM (inactive) | > 100 µM (inactive) | > 100 µM (inactive) | > 100 µM (inactive) | > 100 µM (inactive) | > 100 µM (inactive) | > 100 µM (inactive) | > 100 µM (inactive) |
| CC(C)NC(=O)OCc1c(COC(=O)NC(C)C)n(C)c2c1ccc1ccsc12 | 9.73 µM (inactive) | 9.98 µM (inactive) | 1.81 µM (inactive) | 2.25 µM (inactive) | 12.9 µM (inactive) | 17.5 µM (inactive) | 9.25 | 12.5 µM (inactive) | 15.3 µM (inactive) | 12.4 µM (inactive) | 13.9 µM (inactive) | 3.61 µM (inactive) | 17 µM (inactive) | 15.3 µM (inactive) | 6.98 µM (inactive) | 4.38 µM (inactive) | 7.62 µM (inactive) | 5.66 µM (inactive) | 6.78 µM (inactive) | 7.1 µM (inactive) |
| O=[N+]([O-])/C(C(Cl)=C(Cl)Cl)=C1/OCCS1 | 20.3 µM (inactive) | 23.3 µM (inactive) | 29.6 µM (inactive) | 15.9 µM (inactive) | 19.8 µM (inactive) | 32.1 µM (inactive) | 21.3 | 24.4 µM (inactive) | 31.9 µM (inactive) | 41.6 µM (inactive) | 14.4 µM (inactive) | 30.4 µM (inactive) | 32.4 µM (inactive) | 35.9 µM (inactive) | 19.3 µM (inactive) | 25.5 µM (inactive) | 33.9 µM (inactive) | 23 µM (inactive) | 13.9 µM (inactive) | 23.1 µM (inactive) |
| Cc1cc(C)n(CC(Cn2nc(C)cc2C)=C(/C(Cl)=C(/Cl)Nc2ccc([N+](=O)[O-])cc2)[N+](=O)[O-])n1 | 3.37 µM (inactive) | 3.43 µM (inactive) | 1.81 µM (inactive) | 0.558 µM (active) | 2.67 µM (inactive) | 3.85 µM (inactive) | 4.73 | 2.62 µM (inactive) | 1.81 µM (inactive) | 3.74 µM (inactive) | 4 µM (inactive) | 1.02 µM (active) | 7.78 µM (inactive) | 3.42 µM (inactive) | 3.59 µM (inactive) | 5.01 µM (inactive) | 5.87 µM (inactive) | 3.82 µM (inactive) | 4.67 µM (inactive) | 2.74 µM (inactive) |
| C[C@]12CCC3C4=C(CCC3C1CCC2=O)C(=O)[C@H]1O[C@H]1C4=O (stereo not given in full) | 17.1 µM (inactive) | 11 µM (inactive) | 0.275 µM (active) | 1.12 µM (inactive) | 4.33 µM (inactive) | 14.3 µM (inactive) | 1.36 | 2.24 µM (inactive) | 5.43 µM (inactive) | 7.18 µM (inactive) | 1.46 µM (inactive) | 3.05 µM (inactive) | 3.77 µM (inactive) | 4.18 µM (inactive) | 1.6 µM (inactive) | 2.31 µM (inactive) | 15.3 µM (inactive) | 2.64 µM (inactive) | 3.23 µM (inactive) | 2.31 µM (inactive) |
| C/C(=N\NC(=S)N1CCCCCCCCCCCC1)c1ccccn1 | 0.372 µM (active) | 0.356 µM (active) | 0.246 µM (active) | 0.0431 µM (active) | 0.0522 µM (active) | 0.0514 µM (active) | 0.216 | 0.212 µM (active) | 0.102 µM (active) | 0.126 µM (active) | 0.0346 µM (active) | 0.0491 µM (active) | 0.971 µM (active) | 0.107 µM (active) | 0.0769 µM (active) | 0.225 µM (active) | 0.324 µM (active) | 0.238 µM (active) | 0.243 µM (active) | 0.349 µM (active) |
| NC1=CN(CCCO)C2=N/C(=C\c3ccccc3)C(=O)N12 | 85.7 µM (inactive) | > 100 µM (inactive) | > 100 µM (inactive) | > 100 µM (inactive) | > 100 µM (inactive) | 69.5 µM (inactive) | > 100 | > 100 µM (inactive) | > 100 µM (inactive) | > 100 µM (inactive) | > 100 µM (inactive) | > 100 µM (inactive) | > 100 µM (inactive) | > 100 µM (inactive) | > 100 µM (inactive) | > 100 µM (inactive) | > 100 µM (inactive) | > 100 µM (inactive) | > 100 µM (inactive) | > 100 µM (inactive) |
| CC(C)(C)OC(=O)NC(Cc1ccc(O)cn1)C(=O)O (stereo not given) | > 100 µM (inactive) | > 100 µM (inactive) | > 100 µM (inactive) | > 10 µM (inactive) | > 100 µM (inactive) | > 100 µM (inactive) | > 100 | > 100 µM (inactive) | > 100 µM (inactive) | > 100 µM (inactive) | > 100 µM (inactive) | > 100 µM (inactive) | > 100 µM (inactive) | > 100 µM (inactive) | > 100 µM (inactive) | > 100 µM (inactive) | > 100 µM (inactive) | > 100 µM (inactive) | > 100 µM (inactive) | > 100 µM (inactive) |
| CCOP(=O)(OCC)C(F)(F)CC1CCCCC1 | > 10 µM (inactive) | > 10 µM (inactive) | > 10 µM (inactive) | > 10 µM (inactive) | > 10 µM (inactive) | > 10 µM (inactive) | > 10 | > 10 µM (inactive) | > 10 µM (inactive) | > 10 µM (inactive) | > 10 µM (inactive) | > 10 µM (inactive) | > 10 µM (inactive) | > 10 µM (inactive) | > 10 µM (inactive) | > 10 µM (inactive) | > 10 µM (inactive) | > 10 µM (inactive) | 4.38 µM (inactive) | > 10 µM (inactive) |
| O=S(=O)(O)c1cc(S(=O)(=O)O)c2c(/N=N/c3cccc4ccccc34)c(O)ccc2c1 | > 100 µM (inactive) | > 100 µM (inactive) | > 100 µM (inactive) | > 100 µM (inactive) | > 100 µM (inactive) | > 100 µM (inactive) | > 100 | > 100 µM (inactive) | > 100 µM (inactive) | > 100 µM (inactive) | > 100 µM (inactive) | > 100 µM (inactive) | > 100 µM (inactive) | > 100 µM (inactive) | > 100 µM (inactive) | > 100 µM (inactive) | > 100 µM (inactive) | > 100 µM (inactive) | > 100 µM (inactive) | > 100 µM (inactive) |
| Nc1ccc(-c2nc3cc(F)ccc3s2)cc1I | 15.8 µM (inactive) | 23.6 µM (inactive) | 15.6 µM (inactive) | > 100 µM (inactive) | 2.45 µM (inactive) | 9.46 µM (inactive) | 1.34 | < 0.01 µM (active) | 14.7 µM (inactive) | > 100 µM (inactive) | 0.255 µM (active) | 0.0782 µM (active) | 0.274 µM (active) | 24.2 µM (inactive) | 15 µM (inactive) | 16.5 µM (inactive) | 14.2 µM (inactive) | 20.9 µM (inactive) | 16.1 µM (inactive) | 16.1 µM (inactive) |

Source: ChEMBL document CHEMBL1201862, “PubChem BioAssay data set” (2004)
